# Reference: US8759304B2, “Compositions and methods for increasing telomerase activity” (Telomerase Activation Science, Inc., priority 2003, dated 2014)
# How the values were obtained:
# [1] = test system: telomerase activity in HEKneoP cells (neonatal keratinocytes); assay: TRAP assay of telomerase activity in HEKneoP cells (neonatal keratinocytes); assay type: cell-based, human; conditions: for MEC (minimum effective concentration producing telomerase activity twice that of DMSO control): 100% greater than DMSO control
# [2] = test system: young neonatal keratinocytes; assay: Scratch assay (wound healing activity), young neonatal keratinocytes; assay type: cell-based; conditions: FIG. 5, 1 at 0.1 μg/ml, 2 at 0.01 μM; for WHtest (wound healing activity): WH=100−[100×Wn/W0], WHcntrl 52.6
# Method: (§1) The compounds of formula I-III can be used to promote healing of wounds, burns, abrasions or other acute or chronic conditions of the epidermis, as discussed further below. As used herein, “wound healing activity as measured in a scratch assay” refers to the activity as measured in keratinocytes or fibroblasts according to the following protocol, and expressed as the value of WH shown in the formula below.
# (§2) Cells are plated in flasks (5×10^5 cells per flask) and cultured for two days in a humidified chamber at 5% CO2, 37° C. To create the “wound”, a 2 ml plastic pipette is gently dragged to “scratch” the cell surface. The ideal wound is approximately 2-3 mm wide and 50 mm long (along the long axis of the tissue culture flask). The cells are retreated with medium containing either vehicle (DMSO; control sample) or test compositions at multiple concentrations. A wound area is identified, the flask marked, and the appearance of the cells documented photographically over 3-4 days continued culturing of the cells.
# (§3) Amount of wound closure is determined by measuring the width of the wound over time for compound-treated samples relative to vehicle-treated or other control cells. Measurements are made from the photographs taken for each of the samples on days 1 (immediately after scratching), 2, 3, and 4. Percentage of wound healing (also expressed as “wound healing activity”) is calculated by the following formula: WH=100−[100×Wn/W0], where Wn is the width of the wound on day n and W0 is the width of the wound on day one (i.e. immediately after scratching).
# (§4) Wound healing activity of invention compounds 1 (astragaloside IV) and 2 (cycloastragenol) was evaluated in aging keratinocytes, via a scratch assay as described above.
# [3] = test system: aging adult keratinocytes; assay: Scratch assay (wound healing activity), aging adult keratinocytes; assay type: cell-based; conditions: FIG. 4; for Approx. wound width Day1 test: 0.1 μg/ml (about 0.13 μM) 1
# Method: as §1, §2, §3, §4
# (GRN163 is a telomerase inhibitor oligonucleotide that targets the template region of the telomerase RNA component. Specifically, GRN 163 is a 13-mer N3′→P5′ thiophosphoramidate oligonucleotide, described in detail in PCT Pubn. No. WO 01/18015. GRN137227 is a 13-mer N3′→P5′ thiophosphoramidate control oligonucleotide having a mismatched sequence.)
# [4] = test system: aging neonatal keratinocytes; assay: Scratch assay (wound closure), aging neonatal keratinocytes; assay type: cell-based; conditions: FIG. 7; compared with 50 ng/mL PDGF
# Method: as §1
# Cells are plated in flasks (5×10^5 cells per flask) and cultured for two days in a humidified chamber at 5% CO2, 37° C. To create the “wound”, a 2 ml plastic pipette is gently dragged to “scratch” the cell surface. The ideal wound is approximately 2-3 mm wide and 50 mm long (along the long axis of the tissue culture flask). The cells are retreated with medium containing either vehicle (DMSO; control sample) or test compositions at multiple concentrations. […]
# Amount of wound closure is determined by measuring the width of the wound over time for compound-treated samples relative to vehicle-treated or other control cells. […] Percentage of wound healing (also expressed as “wound healing activity”) is calculated by the following formula: WH=100−[100×Wn/W0], where Wn is the width of the wound on day n and W0 is the width of the wound on day one (i.e. immediately after scratching). […]
# Sprague-Dawley rats = assay: Systemic tolerance after single intravenous injection in rats; assay type: in vivo; conditions: single intravenous injections up to 10 mg/kg
# Method: (§5) Studies in support of the invention indicate that the compounds of formula I-III have excellent bioavailability and low toxicity. For example, a representative compound, cycloastragenol (2), was negative for reverse bacterial mutation potential in the Ames test, employing Salmonella Typhimurium tester strains TA98, TA100, TA1535, TA 1537 and E. coli tester strain WP2 uvrA, at levels up to 5000 μg/plate. It was well-tolerated systemically in Sprague-Dawley rats, after single intravenous injections up to 10 mg/kg.
# [5] = test system: Salmonella Typhimurium tester strains TA98, TA100, TA1535, TA 1537 and E. coli tester strain WP2 uvrA; assay: Ames test (reverse bacterial mutation); conditions: levels up to 5000 μg/plate
# Method: as §5
# [6] = day 1 immediately after scratching
compound,measurement,setting,value
"CC(C)(O)[C@@H]1CC[C@](C)([C@H]2[C@@H](O)C[C@@]3(C)[C@@H]4C[C@H](O[C@@H]5O[C@H](CO)[C@@H](O)[C@H](O)[C@H]5O)[C@H]5C(C)(C)[C@@H](O[C@@H]6OC[C@@H](O)[C@H](O)[C@H]6O)CC[C@@]56C[C@@]46CC[C@]23C)O1 [Compound 1, astragaloside IV]",MEC (minimum effective concentration producing telomerase activity twice that of DMSO control),[1],0.01 µM
same,telomerase activity,"[1]; at 1.0 μM in DMSO, maximum, decreased at higher concentration up to 10 μM",about 360 % of control
same,Approx. wound width Day1 test,[2],0 arbitrary units
same,WHtest (wound healing activity),[2],100
same,Approx. wound width Day1 test,[2]; [6],18 arbitrary units
same,WHtest (wound healing activity),"[3]; 0.1 μg/ml 1, WH=100−[100×Wn/W0], WHcntrl 54.5",100
same,Approx. wound width Day1 test,[3],0 arbitrary units
same,Approx. wound width Day1 test,[3]; [6],17 arbitrary units
same,state of scratch wound in treated cells,"[3]; 0.1 μg/ml (about 0.13 μM) 1 in DMSO, control still had sizable wound at day 4",confluent at day 4
same,"wound closure as percent of control, effectiveness",[4],comparable to that of PDGF
"CC(C)(O)[C@@H]1CC[C@](C)([C@H]2[C@@H](O)C[C@@]3(C)[C@@H]4C[C@H](O)[C@H]5C(C)(C)[C@@H](O)CC[C@@]56C[C@@]46CC[C@]23C)O1 [Compound 2, cycloastragenol]",MEC (minimum effective concentration producing telomerase activity twice that of DMSO control),[1],0.01 µM
same,telomerase activity,"[1]; at 0.1 μM in DMSO, maximum, decreased with further increases in concentration",about 300 % of control
same,Approx. wound width Day1 test,[2],2 arbitrary units
same,WHtest (wound healing activity),[2],90.5
same,Approx. wound width Day1 test,[2]; [6],21 arbitrary units
same,"changes in behavior (eating, drinking), gross weight, organ weights, hematology or clinical chemistry",Sprague-Dawley rats; males or females,No significant dose-dependent changes
same,systemic tolerance,Sprague-Dawley rats,well-tolerated
same,reverse bacterial mutation potential,[5],negative
"CC(C)(O)[C@@H]1CC[C@](C)([C@H]2[C@@H](O)C[C@@]3(C)[C@@H]4C[C@H](O)[C@H]5C(C)(C)[C@@H](O)CC[C@]5(C)C4=CC[C@]23C)O1 [Compound 3, astragenol]",MEC (minimum effective concentration producing telomerase activity twice that of DMSO control),[1],0.03 µM
"CC1(C)C2=CC[C@@H]3[C@@](C)(CC[C@]4(C)[C@@H]([C@@]5(C)CC[C@@H](C(C)(C)O)O5)[C@@H](O)C[C@@]34C)C2=CCC1O (stereo partly drawn) [Compound 5, 20R,24S-epoxy-3β,16β,25-trihydroxy-9β-methyl-19-norlanost-1,5-diene]",MEC (minimum effective concentration producing telomerase activity twice that of DMSO control),[1],0.10 µM
"CC(C)(O)[C@@H]1CC[C@](C)([C@H]2[C@@H](O)C[C@@]3(C)[C@@H]4C[C@H](OC5O[C@H](CO)[C@@H](O)[C@H](O)[C@H]5O)[C@H]5C(C)(C)C(O)CCC56C[C@@]46CC[C@]23C)O1 (stereo partly drawn) [Compound 6, cycloastragenol 6-β-D-glucopyranoside]",MEC (minimum effective concentration producing telomerase activity twice that of DMSO control),[1],3.2 µM
"CC(C)(O)[C@@H]1CC[C@](C)([C@H]2[C@@H](O)C[C@@]3(C)[C@@H]4C[C@H](O)[C@H]5C(C)(C)C(O[C@@H]6OC[C@@H](O)[C@H](O)[C@H]6O)CCC56C[C@@]46CC[C@]23C)O1 (stereo partly drawn) [Compound 7, cycloastragenol 3-β-D-xylopyranoside]",MEC (minimum effective concentration producing telomerase activity twice that of DMSO control),[1],3.2 µM
"CC(C)=CCC[C@](C)(O)[C@H]1CC[C@]2(C)[C@@H]1[C@H](O)C[C@@H]1[C@@]3(C)CC[C@H](O)C(C)(C)[C@@H]3[C@@H](O[C@@H]3O[C@H](CO)[C@@H](O)[C@H](O)[C@H]3O)C[C@]12C [Compound 8, ginsenoside RH1]",MEC (minimum effective concentration producing telomerase activity twice that of DMSO control),[1],10 µM
EGF: epidermal growth factor,telomerase activity,[1]; cells treated with 10 nM EGF,about 200%
astragaloside IV 16-one [Compound 4],MEC (minimum effective concentration producing telomerase activity twice that of DMSO control),[1],0.03 µM
